# Reference: patent US20170231910A1, “PHARMACEUTICAL FORMULATIONS OF CHELATING AGENTS AS A METAL REMOVAL TREATMENT SYSTEM” (ZONEONE PHARMA, INC., priority 2014, published 2017)
# Structures can show the parent of a compound that is named as a salt.
# Experiments:
# [1] = PK of DFO in plasma of mice after liposomal DFO or Desferal; format: in vivo, CF-1 female mice; details: 100 mg/kg
# Experimental: Liposomes containing egg PC/Chol (3 mol/2 mol, LDFO-1), egg PC/DOPG/Chol (2.7 mol/0.3 mol/2 mol, LDFO-2), and HSPC/Chol (3 mol/2 mol, LDFO-4) containing 500 mM ammonium sulfate were prepared as in Example 1. DFO was remote loaded as in Example 20.
# After loading the liposomes were purified by dialysis versus HBS pH 6.5. The liposomes were sterilized by filtration through 0.2 um PES filters and analyzed for drug and lipid content. The liposomal DFO were administered to CF-1 female mice at 100 mg/kg (n=3) and at various times the animals were sacrificed and blood taken.
# After processing to plasma, DFO was extracted from plasma by mixing with 6 volumes of methanol containing 0.1% trifluoroacetic acid in an eppendorf tube. The mixtures were vortexed twice for 10 seconds then placed at −80° C. for 1 h. The samples were thawed and centrifuged for 12,000 rpm for 10 min at 4° C. and the supernatant analyzed for DFO by HPLC as described herein. […] By comparison DFO was undetectable beyond 1 h after dosing with Desferal®.
# [2] = test system: Iron Overloaded Mouse Model; test: Liver iron removal from iron overloaded mouse model (ferrozine assay); format: in vivo; details: iron-dextran overloaded mice, IV 100 mg/kg chelator on day 7 and day 10
# Experimental: LDFO formulations were prepared as described in Example 1. Both formulations were composed of HSPC/cholesterol (3/0.5 (mol/mol)). One formulation was prepared using 250 mM ammonium sulfate (LDFO-AS) as the trapping agent and the second formulation was prepared using 250 mM ascorbate phosphate (LDFO-AP) as the trapping agent and all other components and DFO loading procedures of the formulations were identical. Mice were overloaded with a single IV injection of iron-dextran at 100 mg/kg Fe. Overloaded mice were treated with each formulation IV at 100 mg/kg chelator on day 7 and day 10. The mice were sacrificed after the second treatment and the livers were analyzed for iron content using a ferrozine assay (Riemer et al. 2004)
structure (smiles),measurement,setting,value
"CC(=O)N(O)CCCCCNC(=O)CCC(=O)N(O)CCCCCNC(=O)CCC(=O)N(O)CCCCCN [Desferal, deferoxamine mesylate]",DFO in plasma after dosing,[1]; beyond 1 h after dosing,undetectable
same,initial dose (ID) of DFO retained in the plasma at 24 h,"[1]; IV, 24 h",undetectable
same,mean liver iron content after treating,[2],229 mg/kg
